Assay results as given in PubChem BioAssay (NCI).
Several values for one entry are separate records, joined by “and”; a condition that tells them apart may be missing. Equal entries are not always repeated.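 Following 48 hours of exposure in 96-well plates, responses at five concentrations were used to interpolate endpoints linearly. GI50: concentration for 50% inhibition of growth. At the TGI there is no net growth.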

Legend:
Assay in all cases: NCI tumour cell line growth inhibition, 48 h
OVCAR-5 ovarian = test system: OVCAR-5 ovarian
HCC-2998 colon = test system: HCC-2998 colon
NCI-H460 lung = test system: NCI-H460 lung
SK-MEL-2 melanoma = test system: SK-MEL-2 melanoma
HT29 colon = test system: HT29 colon
SF-539 CNS = test system: SF-539 CNS
CAKI-1 renal = test system: CAKI-1 renal
MDA-MB-231 breast = test system: MDA-MB-231 breast
OVCAR-3 ovarian = test system: OVCAR-3 ovarian
OVCAR-4 ovarian = test system: OVCAR-4 ovarian

SMILES | GI50 (OVCAR-5 ovarian) | TGI (OVCAR-5 ovarian) [µM] | GI50 (HCC-2998 colon) | TGI (HCC-2998 colon) | TGI (NCI-H460 lung) | GI50 (SK-MEL-2 melanoma) | TGI (SK-MEL-2 melanoma) | GI50 (HT29 colon) | TGI (HT29 colon) | GI50 (SF-539 CNS) | TGI (SF-539 CNS) | GI50 (CAKI-1 renal) | TGI (CAKI-1 renal) | GI50 (MDA-MB-231 breast) | TGI (MDA-MB-231 breast) | GI50 (OVCAR-3 ovarian) | TGI (OVCAR-3 ovarian) | GI50 (OVCAR-4 ovarian) | TGI (OVCAR-4 ovarian) | GI50 (NCI-H460 lung)
Cc1cc(Cl)ccc1OCC(=O)Nc1nc2c(Cl)cccc2s1 | 50.4 µM | > 100 | > 100 µM | > 100 µM | > 100 µM | > 100 µM | > 100 µM | > 100 µM | > 100 µM | 17.4 µM | > 100 µM | > 100 µM | > 100 µM | 16.2 µM | 91.9 µM | 28.1 µM | 93.8 µM | 46.7 µM | > 100 µM | 
CN(c1ccc(NC(=O)Nc2c(Cl)cccc2Cl)cc1)c1ccnc(Nc2cccc(CS(C)(=O)=O)c2)n1 | 6.2 µM | > 19.5 | 4.78 µM | 16.8 µM | 11.6 µM | 5 µM | 11.9 µM | 2.16 µM | 7.81 µM | 0.304 µM | 6.4 µM | 4.53 µM | 21 µM | 4.49 µM | 16.9 µM | 1.65 µM | 5.2 µM | 3.12 µM | 12.5 µM | 0.505 µM
CCN1C(=O)/C(=C/c2c(Cl)[nH]c3cc(C)c(OC)cc23)c2ccccc21 | 16.5 µM | 85.3 | 2.4 µM | 7.15 µM | 70.2 µM | 0.708 µM | > 100 µM | 1.55 µM | > 100 µM | 0.251 µM | 0.52 µM | 5.45 µM | > 100 µM | 2.43 µM | 54.1 µM | 2.6 µM | 8.37 µM | 29.8 µM | > 100 µM | 3.31 µM
CCCCCCCCn1ccc2cc(NC(=O)Cn3cc(CN4CCCCCC4)nn3)ccc21 | 1.82 µM | 3.86 | 1.78 µM | 3.35 µM | 3.45 µM | 1.93 µM | 3.6 µM | 1.73 µM | 3.46 µM | 1.76 µM | 3.21 µM | 1.49 µM | 2.89 µM | 1.74 µM | 3.47 µM | 1.73 µM | 3.24 µM | 1.59 µM | 3.13 µM | 1.85 µM
CN(C)CCC(=O)N1C/C(=C\c2ccc(Cl)c(Cl)c2)C(=O)/C(=C/c2ccc(Cl)c(Cl)c2)C1 |  | 1.69 |  | 0.955 µM | 1.38 µM |  | 3.34 µM |  | 0.495 µM |  | 0.832 µM |  | 0.984 µM |  | 0.799 µM |  | 0.93 µM |  | 0.777 µM | 
CS(=O)(=O)CCNCc1coc(-c2ccc3ncnc(Nc4ccc(OCc5ccccc5)cc4)c3c2)c1 | 4.22 µM | 11.7 | 4.16 µM | 7.91 µM | 8.5 µM | 4.55 µM | 8.92 µM | 3.4 µM | 7.77 µM | 4.25 µM | 8.82 µM | 3.98 µM | 13.4 µM | 4.15 µM | 8.26 µM | 3.46 µM | 13.7 µM | 5.94 µM | > 25 µM | 3.86 µM
COc1cccc2c1C(=N)c1c(O)c3c(c(O)c1C2=O)C[C@@](O)(C(C)=O)C[C@@H]3O[C@H]1C[C@H](N)[C@H](O)[C@H](C)O1 | 0.512 µM | 5.68 | 0.474 µM | 2.51 µM | 0.833 µM | 2.28 µM | 4.95 µM | 0.316 µM | 2.09 µM | 0.174 µM | 1.48 µM | 0.445 µM | 4.07 µM | 1.26 µM | 7.74 µM | 1.13 µM | 7.11 µM |  | 7.68 µM | 0.0472 µM
O=C1C=CC(=O)C2C1C1(Cl)C(Cl)=C(Cl)C2(Cl)C1(Cl)Cl (configuration not stated) | 12.4 µM | 31.1 | 6.45 µM | 20.4 µM | 9.04 µM | 3.18 µM | 8.99 µM | 7.54 µM | 23.9 µM | 6.46 µM | 23.2 µM | 2.84 µM | 12.1 µM | 3.62 µM | 16.4 µM | 2.03 µM | 5.08 µM | 7.38 µM | > 100 µM | 3.06 µM
CN(C)C/C=C/C(=O)Nc1ccc(C(=O)N[C@@]2(C)CCC[C@@H](Nc3ncc(Cl)c(-c4c[nH]c5ccccc45)n3)C2)nc1 | 0.0213 µM | 1.24 | < 0.01 µM | 0.164 µM | 0.386 µM | 0.0129 µM | 0.0511 µM | < 0.01 µM | 1.09 µM | 0.0195 µM | 0.0929 µM | < 0.01 µM | 1.11 µM | 0.0145 µM | 1.22 µM |  |  | 0.0141 µM | 0.915 µM | < 0.01 µM
Cc1ccc(C)c(NC(=O)CC2Sc3ccccc3NC2=O)c1 (configuration not stated) | 46.5 µM and > 100 µM | > 100 | 19 µM and 61.9 µM | 34.8 µM and > 100 µM | > 100 µM |  | > 100 µM | 31.4 µM and > 100 µM | > 100 µM |  | 41.2 µM and 68.8 µM | 18.9 µM and 45.2 µM | 33.1 µM and 99.1 µM | 5.08 µM and 34.8 µM | 28.9 µM and > 65.6 µM | 14.6 µM and 30.3 µM | 23.7 µM and 58.4 µM | 14.8 µM and 31.3 µM | 24 µM and 57.7 µM | 33.6 µM and > 74.1 µM
CCCCCCCCCCCCCCCCCCOC[C@H](COP(=O)(O)O[C@H]1[C@H](O)[C@@H](O)[C@H](O)C[C@H]1O)OC |  |  | 24.2 µM and 6.97 µM | > 100 µM and 20.5 µM | > 100 µM and 26.1 µM | > 100 µM and 16.3 µM | > 100 µM and 30.2 µM | 58.7 µM and 13.1 µM | > 100 µM and 26.2 µM | > 100 µM and 16.2 µM | > 100 µM and 31 µM | 87.4 µM and 9.51 µM | > 100 µM and 25.1 µM | > 100 µM and 13.6 µM | > 100 µM and 27.6 µM | > 100 µM and 16.9 µM | > 100 µM and 34.9 µM | > 100 µM and 16 µM | > 100 µM and 36.8 µM | 79.4 µM and 11.7 µM
Cc1cn(-c2cc(NC(=O)c3cccc(C#Cc4cccc5[nH]nc(N)c45)c3)cc(C(F)(F)F)c2)cn1 | 3.16 µM | > 100 | 3.17 µM | > 100 µM | 16.7 µM | 2.27 µM | 8.14 µM | 2.55 µM | 17.7 µM | 1.3 µM | 14.3 µM | 4.23 µM | 16.6 µM | 2.35 µM | 16.7 µM | 11.1 µM | 83.1 µM | 2.93 µM | 21.2 µM | 4.13 µM
